# Reference: publication PMC5671655, “LASSBio-897 Reduces Lung Injury Induced by Silica Particles in Mice: Potential Interaction with the A2A Receptor” (Frontiers in Pharmacology, 2017)
# pIC50: −log10 of the molar value.
# Assays:
# 5-HT transporter = target: T1, 5-HT transporter (Homo sapiens, UniProt P31645); test: Cerep Diversity Profile screen, single concentration […]
# T1 construct: gene SLC6A4
# adenosine A2A receptor [1] = target: T2, adenosine A2A receptor (Homo sapiens, UniProt P29274); test: radioligand competition with [3H]-adenosine; format: binding
# T2 construct: gene ADORA2A; membrane preparation of HEK293 cells overexpressing the human A2A receptors
# adenosine A2A receptor [2] = target: T3, adenosine A2A receptor (Rattus norvegicus, UniProt P30543); test: radioligand competition with [3H]-CGS21680; format: binding
# T3 construct: gene Adora2a; rat striatum membrane preparation
# T3 sequence (P30543 whole entry): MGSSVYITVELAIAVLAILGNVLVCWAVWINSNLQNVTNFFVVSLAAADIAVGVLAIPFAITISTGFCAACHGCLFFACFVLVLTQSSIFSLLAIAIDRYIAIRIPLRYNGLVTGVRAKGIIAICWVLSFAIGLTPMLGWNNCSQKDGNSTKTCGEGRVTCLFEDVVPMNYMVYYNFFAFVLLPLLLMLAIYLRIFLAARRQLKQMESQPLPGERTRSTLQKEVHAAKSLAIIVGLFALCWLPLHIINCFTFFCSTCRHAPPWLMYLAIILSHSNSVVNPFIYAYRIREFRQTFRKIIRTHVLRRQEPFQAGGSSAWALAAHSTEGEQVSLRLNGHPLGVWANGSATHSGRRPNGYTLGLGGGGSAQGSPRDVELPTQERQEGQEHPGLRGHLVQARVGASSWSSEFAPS
# T2 sequence (P29274 whole entry): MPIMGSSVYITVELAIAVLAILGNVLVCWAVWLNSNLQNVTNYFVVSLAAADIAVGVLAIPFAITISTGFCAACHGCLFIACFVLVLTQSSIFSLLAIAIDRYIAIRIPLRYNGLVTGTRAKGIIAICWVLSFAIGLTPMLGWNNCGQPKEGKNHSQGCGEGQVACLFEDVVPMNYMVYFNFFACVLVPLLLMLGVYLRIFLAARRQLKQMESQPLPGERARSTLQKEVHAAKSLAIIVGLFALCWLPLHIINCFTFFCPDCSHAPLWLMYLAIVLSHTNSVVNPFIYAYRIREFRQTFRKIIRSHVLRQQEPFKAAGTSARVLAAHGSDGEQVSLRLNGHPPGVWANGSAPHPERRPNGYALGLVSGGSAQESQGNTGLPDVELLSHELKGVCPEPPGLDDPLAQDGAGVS
# T1 sequence (P31645 whole entry): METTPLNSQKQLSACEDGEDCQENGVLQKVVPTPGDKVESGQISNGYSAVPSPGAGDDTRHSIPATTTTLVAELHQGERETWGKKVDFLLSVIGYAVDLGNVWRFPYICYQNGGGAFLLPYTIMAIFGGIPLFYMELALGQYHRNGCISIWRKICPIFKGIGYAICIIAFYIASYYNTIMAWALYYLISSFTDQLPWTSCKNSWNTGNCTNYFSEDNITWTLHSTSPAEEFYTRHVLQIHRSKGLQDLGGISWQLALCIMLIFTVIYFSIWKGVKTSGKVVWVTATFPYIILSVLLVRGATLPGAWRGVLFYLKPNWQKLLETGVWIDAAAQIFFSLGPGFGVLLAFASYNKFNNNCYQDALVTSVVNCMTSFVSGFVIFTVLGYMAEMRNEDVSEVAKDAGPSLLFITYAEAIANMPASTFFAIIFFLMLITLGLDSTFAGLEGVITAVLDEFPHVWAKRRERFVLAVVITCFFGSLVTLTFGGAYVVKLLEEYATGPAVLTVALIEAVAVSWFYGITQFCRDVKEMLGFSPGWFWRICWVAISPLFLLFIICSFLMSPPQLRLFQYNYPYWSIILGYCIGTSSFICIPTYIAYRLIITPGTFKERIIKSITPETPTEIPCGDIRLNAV
structure (smiles),measurement,setting,value
O=C(N/N=C/c1ccsc1)c1ccc2c(c1)OCO2 [LASSBio-897],inhibition at 10 µM,5-HT transporter,56%
same,pIC50,adenosine A2A receptor [1],4.94
same,pIC50,adenosine A2A receptor [2],5.03
